Legend:
myeloperoxidase [1] = molecular target: T1, myeloperoxidase (Homo sapiens, UniProt P05164); experiment: MPO Peroxidation Assay (Amplex Red Assay); assay type: biochemical; settings: potency range class
T1 sequence (P05164 49-745): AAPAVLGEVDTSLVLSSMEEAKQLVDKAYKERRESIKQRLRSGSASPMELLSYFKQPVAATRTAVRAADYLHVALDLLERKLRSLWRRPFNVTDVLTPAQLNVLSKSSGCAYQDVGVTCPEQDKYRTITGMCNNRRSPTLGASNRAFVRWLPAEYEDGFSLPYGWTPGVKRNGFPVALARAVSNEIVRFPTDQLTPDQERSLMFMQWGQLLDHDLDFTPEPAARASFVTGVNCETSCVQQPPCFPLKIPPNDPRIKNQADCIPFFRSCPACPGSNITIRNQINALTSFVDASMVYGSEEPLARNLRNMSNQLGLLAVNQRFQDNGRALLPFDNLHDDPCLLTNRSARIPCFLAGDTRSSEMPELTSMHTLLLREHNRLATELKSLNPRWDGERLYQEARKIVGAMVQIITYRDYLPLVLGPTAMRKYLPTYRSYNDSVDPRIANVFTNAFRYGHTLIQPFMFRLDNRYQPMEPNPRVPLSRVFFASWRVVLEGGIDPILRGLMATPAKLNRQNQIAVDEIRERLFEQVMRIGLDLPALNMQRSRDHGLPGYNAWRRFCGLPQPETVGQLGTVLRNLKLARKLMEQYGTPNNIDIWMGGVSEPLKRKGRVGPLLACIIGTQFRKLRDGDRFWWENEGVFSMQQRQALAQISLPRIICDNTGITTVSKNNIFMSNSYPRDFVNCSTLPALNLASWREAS

myeloperoxidase [2] = molecular target: T1, myeloperoxidase; experiment: MPO Chlorination Assay (APF Assay); assay type: biochemical; settings: potency range class
[3] = read-out: Amplex Red Assay IC50 value

Row | Compound | IC50 (myeloperoxidase [1]; [3]) [µM] | IC50 (myeloperoxidase [2]; read-out: APF Assay IC50 value) [µM] | IC50 (myeloperoxidase [1]; Amplex Red Assay IC50 value (μM)) [µM] | IC50 (myeloperoxidase [2]; APF Assay IC50 value (μM)) [µM]
1 | Nc1cc(C(CCNC2CCC(c3ccc(F)cc3)CC2)c2ccccc2)c2nn[nH]c2n1 (stereo not shown) [Example 112, 7-(3-{[4-(4-fluorophenyl)cyclohexyl]amino}-1-phenylpropyl)-3H-[1,2,3]triazolo [4,5-b]pyridin-5-amine] | 0.101 to 0.999 | 0.101 to 0.999 | – | –
2 | Nc1cc(C(CCNC2(CO)CCC(c3ccccc3)CC2)c2ccccc2)c2nn[nH]c2n1 (stereo not shown) [Example 116, {1-[(3-{5-amino-3H-[1,2,3]triazolo[4,5-b]pyridin-7-yl}-3-phenylpropyl)amino]-4-phenylcyclohexyl} methanol] | 0.101 to 0.999 | 0.001 to 0.1 | – | –
3 | NC(=O)c1ccc(C2CCC(NCCC(c3ccccc3)c3cc(N)nc4[nH]nnc34)CC2)cc1 (stereo not shown) [Example 117, 4-{4-[(3-{5-amino-3H-[1,2,3]triazolo [4,5-b]pyridin-7-yl}-3-phenylpropyl)amino]cyclohexyl} benzamide] | 0.101 to 0.999 | 0.001 to 0.1 | – | –
4 | NC(=O)c1ccc(C2CCC(NCCC(c3ccccc3)c3cc(N)nc4[nH]nnc34)CC2)cc1 (stereo not shown) [Example 118, 4-{4-[(3-{5-amino-3H-[1,2,3]triazolo [4,5-b]pyridin-7-yl}-3-phenylpropyl)amino]cyclohexyl} benzamide] | 0.101 to 0.999 | 0.101 to 0.999 | – | –
5 | CC(C)(Cc1ccccc1)NCCC(c1ccccc1)c1cc(N)nc2[nH]nnc12 (stereo not shown) [Example 119, 7-{3-[(2-methyl-1-phenylpropan-2-yl)amino]-1-phenylpropyl}-3H-[1,2,3]triazolo [4,5-b]pyridin-5-amine] | 0.101 to 0.999 | 0.001 to 0.1 | – | –
6 | Nc1cc(C(CCNCC(c2ccccc2)c2ccccc2)c2ccccc2)c2nn[nH]c2n1 (stereo not shown) [Example 120, 7-{3-[(2,2-diphenylethyl)amino]-1-phenylpropyl}-3H-[1,2,3]triazolo[4,5-b]pyridin-5-amine] | 1 to 10 | 0.001 to 0.1 | – | –
7 | COc1ccc2c(c1)CC[C@H]2NCCC(c1ccccc1)c1cc(N)nc2[nH]nnc12 (stereo partly drawn) [Example 121, 7-(3-{[(1R)-5-methoxy-2,3-dihydro-1H-inden-1-yl]amino}-1-phenylpropyl)-3H-[1,2,3]triazolo[4,5-b]pyridin-5-amine] | 0.101 to 0.999 | 0.101 to 0.999 | – | –
8 | Nc1cc(C(CCN[C@@H]2CCc3c(Cl)cc(Cl)cc32)c2ccccc2)c2nn[nH]c2n1 (stereo partly drawn) [Example 123, 7-(3-{[(1R)-4,6-dichloro-2,3-dihydro-1H-inden-1-yl]amino}-1-phenylpropyl)-3H-[1,2,3]triazolo[4,5-b]pyridin-5-amine] | 0.101 to 0.999 | 0.101 to 0.999 | – | –
9 | Nc1cc(C(CCN[C@@H]2CCc3ccc(C(F)(F)F)cc32)c2ccccc2)c2nn[nH]c2n1 (stereo partly drawn) [Example 124, 7-(1-phenyl-3-{[(1R)-6-(trifluoromethyl)-2,3-dihydro-1H-inden-1-yl]amino}propyl)-3H-[1,2,3] triazolo[4,5-b] pyridin-5-amine] | 1 to 10 | 0.101 to 0.999 | – | –
10 | Nc1cc(C(CCNC2CCC(c3ccc(F)cc3)CC2)c2ccccc2)c2nn[nH]c2n1 (stereo not shown) [Example 125, 7-(3-{[4-(4-fluorophenyl)cyclohexyl]amino}-1-phenylpropyl)-3H-[1,2,3]triazolo[4,5-b]pyridin-5-amine] | 0.101 to 0.999 | 0.001 to 0.1 | – | –
11 | Nc1cc(C(CCNC2CCC(Cc3ccccc3)(c3ccccc3)CC2)c2ccccc2)c2nn[nH]c2n1 (stereo not shown) [Example 126, 7-{3-[(4-benzyl-4-phenylcyclohexyl)amino]-1-phenylpropyl}-3H-[1,2,3]triazolo[4,5-b]pyridin-5-amine] | 1 to 10 | 0.001 to 0.1 | – | –
12 | Nc1cc(C(CCNC2CCC(c3ccccc3)(c3ccccc3)CC2)c2ccccc2)c2nn[nH]c2n1 (stereo not shown) [Example 127, 7-{3-[(4,4-diphenylcyclohexyl)amino]-1-phenylpropyl}-3H-[1,2,3]triazolo[4,5-b]pyridin-5-amine] | 1 to 10 | 0.001 to 0.1 | – | –
13 | Nc1cc(C(CCNC2(c3ccccc3)CCCCC2)c2ccccc2)c2nn[nH]c2n1 (stereo not shown) [Example 128, 7-{1-phenyl-3-[(1-phenylcyclohexyl)amino]propyl}-3H-[1,2,3]triazolo [4,5-b]pyridin-5-amine] | – | – | 1 to 10 | 0.001 to 0.1
14 | Nc1cc(C(CCNC2CCC(Cc3ccccc3)CC2)c2ccccc2)c2nn[nH]c2n1 (stereo not shown) [Example 129, 7-{3-[(4-benzylcyclohexyl)amino]-1-phenylpropyl}-3H-[1,2,3]triazolo[4,5-b]pyridin-5-amine] | 1 to 10 | 0.001 to 0.1 | – | –
15 | CCCCC12CCC(NCCC(c3ccccc3)c3cc(N)nc4[nH]nnc34)(CC1)CC2 (stereo not shown) [Example 130, 7-[3-({4-butylbicyclo [2.2.2]octan-1-yl}amino)-1-phenylpropyl]-3H-[1,2,3]triazolo[4,5-b]pyridin-5-amine] | 0.101 to 0.999 | 0.001 to 0.1 | – | –
16 | Nc1cc(C(CCNC2CCC(c3cccnc3)CC2)c2ccccc2)c2nn[nH]c2n1 (stereo not shown) [Example 132, 7-(1-phenyl-3-{[4-(pyridin-3-yl)cyclohexyl]amino]propyl)-3H-[1,2,3] triazolo[4,5-b] pyridin-5-amine] | 1 to 10 | 1 to 10 | – | –
17 | Nc1cc(C(CCN[C@H]2CC[C@@H](c3ccc(=O)[nH]c3)CC2)c2ccccc2)c2nn[nH]c2n1 (stereo partly drawn) [Example 133, 5-[(cis)-4-[(3-{5-amino-3H-[1,2,3]triazolo[4,5-b]pyridin-7-yl}-3-phenylpropyl)amino]cyclohexyl]-1,2-dihydropyridin-2-one] | 0.101 to 0.999 | 0.101 to 0.999 | – | –
18 | Nc1cc(C(CCN[C@H]2CC[C@H](c3ccc(=O)[nH]c3)CC2)c2ccccc2)c2nn[nH]c2n1 (stereo partly drawn) [Example 134, 5-[(trans)-4-[(3-{5-amino-3H-[1,2,3]triazolo[4,5-b]pyridin-7-yl}-3-phenylpropyl)amino]cyclohexyl]-1,2-dihydropyridin-2-one] | 0.101 to 0.999 | 0.101 to 0.999 | – | –
19 | COc1ccncc1[C@H]1CC[C@H](NCCC(c2ccccc2)c2cc(N)nc3[nH]nnc23)CC1 (stereo partly drawn) [Example 137, 7-(1-phenyl-3-{[(trans)-4-(4-methoxypyridin-3-yl)cyclohexyl]amino}propyl)-3H-[1,2,3]triazolo [4,5-b]pyridin-5-amine] | 1 to 10 | 0.101 to 0.999 | – | –
20 | COc1ccncc1[C@H]1CC[C@@H](NCCC(c2ccccc2)c2cc(N)nc3[nH]nnc23)CC1 (stereo partly shown) [Example 138, 7-(1-phenyl-3-{[(1s,4s)-4-(4-methoxypyridin-3-yl)cyclohexyl]amino}propyl)-3H-[1,2,3]triazolo [4,5-b]pyridin-5-amine] | 1 to 10 | 1 to 10 | – | –
21 | Nc1cc(C(CCN[C@H]2CC[C@H](c3ccncc3)CC2)c2ccccc2)c2nn[nH]c2n1 (stereo partly drawn) [Example 139, 7-(1-phenyl-3-{[(trans)-4-(pyridin-4-yl)cyclohexyl]amino}propyl)-3H-[1,2,3] triazolo[4,5-b] pyridin-5-amine] | 0.101 to 0.999 | 0.001 to 0.1 | – | –
22 | Nc1cc(C(CCN[C@H]2CC[C@@H](c3ccncc3)CC2)c2ccccc2)c2nn[nH]c2n1 (stereo partly shown) [Example 141, 7-(1-phenyl-3-{[(1s,4s)-4-(pyridin-4-yl)cyclohexyl]amino}propyl)-3H-[1,2,3]triazolo [4,5-b]pyridin-5-amine] | 0.101 to 0.999 | 0.101 to 0.999 | – | –
23 | Nc1cc(C(CCNC2(Cc3ccccc3)CCC(c3ccccc3)CC2)c2ccccc2)c2nn[nH]c2n1 (stereo not shown) [Example 142, 7-{3-[(1-benzyl-4-phenylcyclohexyl)amino]-1-phenylpropyl}-3H-[1,2,3]triazolo[4,5-b]pyridin-5-amine] | 1 to 10 | 0.101 to 0.999 | – | –

— US11008317B2, “Triazolopyridine inhibitors of myeloperoxidase and/or EPX” (priority 2016, dated 2021)
